Laboratory results taken from PMC8636514, “Therapeutic potential of TRPM8 antagonists in prostate cancer” (Scientific Reports, 2021).

How the values were obtained:
ERK, RSK = test: Western blot of ERK and RSK activation in LNCaP cells; type: cell-based, human; conditions: compound 1 μM; for androgen-triggered ERK and RSK activation: 10 nM R1881, 10 min; for ERK and RSK phosphorylation/activation when used alone: no R1881
From the text: (§1) All performed as reported. The mouse monoclonal anti-AR (441; Santa Cruz) antibody was used in Co-Ip or WB approaches. TRPM8 was detected using the rabbit polyclonal anti-TRPM8 (NBP1-97311; Novus Biological). […] The rabbit polyclonal anti-ERK (C-14; Santa Cruz), antibody was used to detect total ERK. FAK and P-Tyr397 FAK were detected using the mouse monoclonal anti-FAK (Clone 77/610077 BD Transduction Laboratories) or anti P-Tyr397 FAK (Clone 14/611722; BD Transduction Laboratories) antibodies, respectively. P-Tyr118 paxillin and total paxillin were detected using the rabbit polyclonal anti-P-Y118 (#2541, Cell Signaling) or the mouse monoclonal anti-paxillin (clone 349; BD Biosciences) antibodies, respectively. […] P-Tyr 416 Src and Src were detected using the rabbit monoclonal anti P-Tyr 416 Src (#6943; Cell Signaling) or the mouse monoclonal anti Src (Calbiochem) antibodies, respectively. ERα and ERβ were detected using the rabbit polyclonal anti-ERα (543; Santa Cruz) or anti-ERβ (Upstate Biotechnology, U.S.A.) antibodies. Cyclin D1, p27 and Cdk4 were stained using the mouse monoclonal anti-cyclin D1 (clone AM29; from Zymed Laboratories Inc.), the rabbit polyclonal anti-p27 (C-19; Santa Cruz) or anti Cdk-4 (c-22; Santa Cruz) antibodies, respectively. The mouse monoclonal anti-tubulin (Sigma-Aldrich) antibody was used to detect tubulin. The ECL system (GE Healthcare) was employed to reveal immune-reactive proteins. Densitometric analysis of WB was performed by using Image J Software (https://imagej.nih.gov/ij).

PC3 cells = test: DNA synthesis (BrdU incorporation) in PC3 cells; type: cell-based; conditions: cycling or androgen-stimulated (10 nM R1881) cells, compound 1 µM
Method: (§2) Cells on coverslips were pulsed in vivo with BrdU (Sigma-Aldrich; at 100 μM, final concentration) and left unchallenged or challenged with 10 nM R1881 for 18 h, in the absence or presence of the indicated compounds. Cells were fixed, permeabilized, washed and the BrdU incorporation was analysed as reported. Nuclei were stained with Hoechst and cells on coverslips were scored by IF microscopy, using a DMLB Leica (Leica) fluorescent microscope, equipped with HCX PL Apo 63 × oil objective. Different fields from each coverslip were analyzed and BrdU incorporation was calculated by the formula: percentage of BrdU-positive cells = (No. of BrdU-positive cells/No. of total cells) × 100. Data in the graphs derive from at least 1000 scored cells for each coverslip. Representative images were captured using DC480 camera (Leica) and acquired using Leica Suite software. They are representative of three different experiments.

22Rv1 cells [1] = test: DNA synthesis (BrdU incorporation) in 22Rv1 cells; type: cell-based, human; conditions: 10 nM R1881, 18 h, compound 1 μM
Method: as §2

22Rv1 cells [2] = test: Invasion assay, 22Rv1 cells; type: cell-based, human; conditions: 10 nM R1881, compound 1 μM; compared with LNCaP
Method: (§3) In wound scratch analysis, 1.8 × 10^5 cells were seeded in a 24-well plate and made quiescent. Cells were then wounded using 10 µl sterile pipette tips and washed with PBS. They were left un-stimulated or stimulated for the indicated times, in the absence or presence of the selected compounds. To avoid cell proliferation, cytosine arabinoside (Sigma-Aldrich) at 50 μM (final concentration) was included in the cell medium. Different fields were analysed by contrast-phase microscopy, as below described in this section. Migration and invasion assays were done as reported. In migration assay, we used 3 × 10^4 cells in collagen pre-coated Boyden’s chambers with 8 μm polycarbonate membrane (Falcon). The indicated stimuli were added to the upper and the lower chambers. […] Migrating and invading cells were scored by fluorescence microscopy, as below described in this section.
(§4) In wound scratch assay, different fields were analysed using DMIRB inverted microscope (Leica) equipped with N-Plan 10 × objective (Leica), as reported. LNCaP organoids were analysed using the same microscope equipped with C-Plan 40 × or HCX PL Fluotar 63 × objectives (Leica). […] The relative organoid size was calculated using the same software and expressed as a fold increase over the basal organoid size (measured at 3th day). The wound gap was calculated using Image J Software and expressed as % of the decrease in the wound area. […]

DU-CaP cells [3] = test: Invasion assay, DU-CaP cells; type: cell-based, human; conditions: 10 nM R1881, compound 1 μM; compared with LNCaP
Method: as §3, §4

DU145 cells [4] = test: Wound scratch assay in DU145 cells; type: cell-based; conditions: cycling or quiescent cells, 10 nM R1881, compound 1 µM
Method: as §3, §4

[5] = tested on: FAK, paxillin, ERK, RSK and Src tyrosine kinase; test: Western blot of androgen-induced rapid actions in LNCaP cells (Fig. 6c); type: cell-based, human; conditions: 10 nM R1881, 10 min, compound 1 μM
From the text: as §1

DU-CaP cells [6] = test: Transmigration assay, DU-CaP cells; type: cell-based, human; conditions: 10 nM R1881, compound 1 μM; compared with LNCaP
Method: as §3, §4

DU145 cells [7] = test: DNA synthesis (BrdU incorporation) in DU145 cells; type: cell-based; conditions: cycling or androgen-stimulated (10 nM R1881) cells, compound 1 µM
Method: as §2

PSA = PSA secretion (ELISA) from LNCaP cells; type: cell-based, human; conditions: compound 1 μM; for androgen-induced PSA secretion: 10 nM R1881, 48 h; for PSA secretion when used alone: no R1881
Method: It was done in culture medium using the PSA ELISA kit (Abnova-Taiwan Corporation, Taiwan), according to the manufacturer’s instructions. Released PSA was analyzed at 450 nm using the EnSpire Multimode Plate Reader (Perkin-Elmer, U.S.A.).

LNCaP cells = test: Wound scratch assay in LNCaP cells; type: cell-based, human; conditions: 10 nM R1881, 20 h, compound 1 μM
Method: as §3, §4

22Rv1 cells [8] = test: Transmigration assay, 22Rv1 cells; type: cell-based, human; conditions: 10 nM R1881, compound 1 μM; compared with LNCaP
Method: as §3, §4

Question: c1ccc(COc2ccc3[nH]cc(CCNCc4ccc(Oc5ccccc5)cc4)c3c2)cc1 [Compound 4] was tested. Which “androgen-triggered ERK and RSK activation” value (ERK, RSK) did it give?
Answer: inhibited

Question: And the “ERK and RSK phosphorylation/activation when used alone” value (ERK, RSK)?
Answer: leaving unaffected

Question: And the BrdU incorporation (PC3 cells)?
Answer: did not affect

Question: What about the “androgen-stimulated BrdU incorporation” value (22Rv1 cells [1]) of the same compound?
Answer: significantly inhibited

Question: And the androgen-induced invasion (22Rv1 cells [2])?
Answer: Superimposable results

Question: What about the androgen-induced invasion (DU-CaP cells [3]) of the same compound?
Answer: Superimposable results

Question: And the wound closure (DU145 cells [4])?
Answer: did not modify

Question: What about the “androgen-elicited activation of FAK, paxillin, ERK, RSK and Src” value [5] of the same compound?
Answer: impaired at similar extent

Question: What about the androgen-induced migration (DU-CaP cells [6]) of the same compound?
Answer: Superimposable results

Question: What about the BrdU incorporation (DU145 cells [7]) of the same compound?
Answer: did not affect

Question: And the “androgen-induced PSA secretion” value (PSA)?
Answer: negligible inhibition

Question: And the “PSA secretion when used alone” value (PSA)?
Answer: Neither the two TRPM8 antagonists, nor enzalutamide did modify such response

Question: And the “wound-gap closure in androgen-treated cells” value (LNCaP cells)?
Answer: stronger effect

Question: What about the androgen-induced migration (22Rv1 cells [8]) of the same compound?
Answer: Superimposable results

Question: With COC(=O)[C@H](Cc1c[nH]c2ccccc12)N(Cc1ccccc1)Cc1ccccc1 [Compound 6] as the compound, how does the “androgen-triggered ERK and RSK activation” value (ERK, RSK) read?
Answer: inhibited

Question: What about the “ERK and RSK phosphorylation/activation when used alone” value (ERK, RSK) of the same compound?
Answer: leaving unaffected

Question: What about the BrdU incorporation (PC3 cells) of the same compound?
Answer: did not affect

Question: And the “androgen-stimulated BrdU incorporation” value (22Rv1 cells [1])?
Answer: significantly inhibited

Question: And the androgen-induced invasion (22Rv1 cells [2])?
Answer: Superimposable results

Question: And the androgen-induced invasion (DU-CaP cells [3])?
Answer: Superimposable results

Question: What about the wound closure (DU145 cells [4]) of the same compound?
Answer: did not modify

Question: And the “androgen-elicited activation of FAK, paxillin, ERK, RSK and Src” value [5]?
Answer: impaired at similar extent

Question: And the androgen-induced migration (DU-CaP cells [6])?
Answer: Superimposable results

Question: And the BrdU incorporation (DU145 cells [7])?
Answer: did not affect

Question: What about the “androgen-induced PSA secretion” value (PSA) of the same compound?
Answer: negligible inhibition

Question: What about the “PSA secretion when used alone” value (PSA) of the same compound?
Answer: Neither the two TRPM8 antagonists, nor enzalutamide did modify such response

Question: And the “wound-gap closure in androgen-treated cells” value (LNCaP cells)?
Answer: stronger effect

Question: And the androgen-induced migration (22Rv1 cells [8])?
Answer: Superimposable results
